Measurements taken from patent US6545002B1 (University of Virginia Patent Foundation, priority 1999, dated 2003).
Read-outs that look alike come from different tables or passages of the source.

What was measured:
human A3 receptors (hA3) [1] = biological target: T1, human A3 receptors (hA3) (Homo sapiens, UniProt P0DMS8); test: Displacement of [125I]AB-MECA binding at human A3 receptors expressed in HEK-293 cells (Table 4)
T1 construct: expressed in transfected cells; host or cells: HEK-293
T1 sequence (P0DMS8 1-318): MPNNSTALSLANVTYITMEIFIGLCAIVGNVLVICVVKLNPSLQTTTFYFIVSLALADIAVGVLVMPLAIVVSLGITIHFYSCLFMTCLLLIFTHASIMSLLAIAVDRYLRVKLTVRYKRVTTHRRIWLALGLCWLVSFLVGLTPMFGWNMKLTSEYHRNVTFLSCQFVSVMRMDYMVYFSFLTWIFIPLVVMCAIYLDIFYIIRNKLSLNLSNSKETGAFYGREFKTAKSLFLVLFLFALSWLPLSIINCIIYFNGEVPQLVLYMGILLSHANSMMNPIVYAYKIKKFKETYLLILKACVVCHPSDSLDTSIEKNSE

rat A2A receptors (rA2A) = biological target: T2, rat A2A receptors (rA2A) (Rattus norvegicus, UniProt P30543); test: Displacement of [3H]CGS 21680 binding in rat striatal membranes
T2 construct: to A2A receptors from rat striatal membranes was performed as described; from tissue; host or cells: rat striatal membranes
Method: (§1) Bruns, R. F. et al., Naunyn-Schmiedeberg's Arch. […] Binding of [^3H]R-N^6-phenylisopropyladenosine. Schwabe, U. et al., Naunyn-Schmiedeberg's Arch. […] (Dupont NEN, Boston, Mass.) to A2A receptors from rat striatal membranes was performed as described. […] All non-radioactive compounds were initially dissolved in DMSO, and diluted with buffer to the final concentration, where the amount of DMSO never exceeded 2%. Incubations were terminated by rapid filtration over Whatman GF/B filters, using a Brandell cell harvester (Brandell, Gaithersburg, Md.). The tubes were rinsed three times with 3 mL buffer each.
(§2) At least six different concentrations of competitor, spanning 3 orders of magnitude adjusted appropriately for the IC50 of each compound, were used. IC50 values, calculated with the nonlinear regression method implemented in (Graph-Pad Prism, San Diego, Calif.), were converted to apparent Ki values as described. Linden, J., J. Cycl. Nucl.

rat A1 receptors (rA1) = biological target: T3, rat A1 receptors (rA1) (Rattus norvegicus, UniProt P25099); test: Displacement of [3H]R-PIA binding in rat brain (cerebral cortical) membranes
T3 construct: to A1 receptors from rat cerebral cortical membranes; from tissue; host or cells: rat cerebral cortical (brain) membranes
T3 sequence (P25099 1-326): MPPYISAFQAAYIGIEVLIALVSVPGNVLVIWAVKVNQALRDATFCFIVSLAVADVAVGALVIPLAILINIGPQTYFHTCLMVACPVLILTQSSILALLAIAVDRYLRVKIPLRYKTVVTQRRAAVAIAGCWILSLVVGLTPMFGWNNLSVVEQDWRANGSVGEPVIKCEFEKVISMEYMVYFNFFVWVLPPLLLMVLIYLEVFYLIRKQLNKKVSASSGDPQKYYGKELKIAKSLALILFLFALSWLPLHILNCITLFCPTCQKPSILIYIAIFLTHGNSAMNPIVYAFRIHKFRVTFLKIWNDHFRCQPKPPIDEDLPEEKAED
Method: as §1, §2

[2] = biological target: T4, human A2B receptors (hA2B) (Homo sapiens, UniProt P29275); test: Radioligand binding ([125I]ABOPX / [3H]ZM241385) at human A2B receptors expressed in HEK-293 cells
T4 construct: expressed in transfected cells; host or cells: HEK-293 (HEK-A2B, G418-selected)
T4 sequence (P29275 1-332): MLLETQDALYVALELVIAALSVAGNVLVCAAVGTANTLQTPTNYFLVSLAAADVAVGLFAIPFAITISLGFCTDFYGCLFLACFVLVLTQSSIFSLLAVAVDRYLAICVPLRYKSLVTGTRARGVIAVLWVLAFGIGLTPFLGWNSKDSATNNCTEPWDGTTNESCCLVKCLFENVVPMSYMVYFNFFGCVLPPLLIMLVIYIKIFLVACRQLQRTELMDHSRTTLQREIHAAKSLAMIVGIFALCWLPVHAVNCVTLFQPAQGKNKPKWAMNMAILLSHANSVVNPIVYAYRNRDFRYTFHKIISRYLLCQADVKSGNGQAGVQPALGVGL

[3] = biological target: recombinant human A2A receptors (hA2A) (Homo sapiens, UniProt P29274); test: Radioligand binding (125I-ZM241385) at recombinant human A2A receptors in HEK-293 cells
human A3 receptors (hA3) [4] = biological target: T1, human A3 receptors (hA3); test: Displacement of [125I]ABA binding at human A3 receptors expressed in HEK-293 cells
[5] = biological target: T5, recombinant human A1 receptors (hA1) (Homo sapiens, UniProt P30542); test: Radioligand binding ([3H]CPX) at recombinant human A1 receptors in HEK-293 cells
T5 sequence (P30542 1-326): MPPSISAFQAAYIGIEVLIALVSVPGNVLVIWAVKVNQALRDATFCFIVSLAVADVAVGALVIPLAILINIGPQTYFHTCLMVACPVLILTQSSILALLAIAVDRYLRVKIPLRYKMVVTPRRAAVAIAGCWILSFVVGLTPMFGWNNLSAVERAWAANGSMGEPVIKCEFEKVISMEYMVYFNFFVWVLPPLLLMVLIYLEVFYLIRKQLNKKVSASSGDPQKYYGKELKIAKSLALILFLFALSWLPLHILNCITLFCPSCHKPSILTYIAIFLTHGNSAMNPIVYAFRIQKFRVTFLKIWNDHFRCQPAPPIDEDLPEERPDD

[6] = Table 2, read-out: hA2B Ki or IC50
[7] = read-out: hA2A Ki or IC50, Table 2
[8] = Table 2, read-out: hA3 Ki or IC50
[9] = read-out: hA1 Ki or IC50, Table 2
[10] = Table 2, read-out: rA2A Ki or IC50
[11] = Table 2, read-out: rA1 Ki or IC50
[12] = read-out: Ki value at human A2B receptors
[13] = Table 4, unmarked value, first of two binding assays, read-out: hA2B Ki

T2 sequence (P30543 whole entry): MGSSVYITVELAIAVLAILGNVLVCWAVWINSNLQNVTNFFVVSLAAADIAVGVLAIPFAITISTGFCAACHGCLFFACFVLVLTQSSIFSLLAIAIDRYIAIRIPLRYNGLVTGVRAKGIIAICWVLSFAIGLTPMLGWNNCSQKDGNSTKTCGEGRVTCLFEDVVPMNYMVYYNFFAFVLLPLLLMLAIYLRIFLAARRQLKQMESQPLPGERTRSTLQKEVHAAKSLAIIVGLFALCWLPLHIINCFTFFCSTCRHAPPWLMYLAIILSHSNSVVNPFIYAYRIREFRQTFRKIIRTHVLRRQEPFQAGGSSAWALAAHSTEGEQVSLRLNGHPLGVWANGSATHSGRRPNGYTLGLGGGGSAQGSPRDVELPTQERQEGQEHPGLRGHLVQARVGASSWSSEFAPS
recombinant human A2A receptors (hA2A), sequence (P29274 whole entry): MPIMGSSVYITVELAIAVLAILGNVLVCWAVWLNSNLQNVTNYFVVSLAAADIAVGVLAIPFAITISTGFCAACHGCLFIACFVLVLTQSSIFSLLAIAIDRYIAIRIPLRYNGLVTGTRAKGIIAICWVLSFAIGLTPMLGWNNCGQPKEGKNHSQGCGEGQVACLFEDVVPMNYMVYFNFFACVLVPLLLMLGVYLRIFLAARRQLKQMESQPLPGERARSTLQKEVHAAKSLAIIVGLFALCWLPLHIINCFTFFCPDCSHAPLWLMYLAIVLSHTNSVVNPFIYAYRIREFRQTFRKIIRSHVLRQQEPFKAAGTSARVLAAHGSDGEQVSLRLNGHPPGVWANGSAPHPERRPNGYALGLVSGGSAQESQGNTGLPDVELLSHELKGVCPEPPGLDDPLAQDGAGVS

| SMILES | Ki (human A3 receptors (hA3) [1]) [µM] | Ki (rat A2A receptors (rA2A); Table 4, read-out: rA2A Ki) [µM] | Ki (rat A1 receptors (rA1); Table 4, read-out: rA1 Ki) [µM] | melting point [°C] | rA1/hA2B ([2]; Table 4, Ki ratio) | Ki [2, 13] [µM] | also measured |
| --- | --- | --- | --- | --- | --- | --- | --- |
| CCCn1c(=O)c2[nH]c(-c3ccc(OCC(=O)NN)cc3)nc2n(CCC)c1=O [Compound 4f] | 0.498 ± 0.139 | 0.0638 ± 0.0213 | 0.016 ± 0.0005 | – | – | – | – |
| CCCn1c(=O)c2[nH]c(-c3ccc(OCC(=O)Nc4ccc(Cl)cc4)cc3)nc2n(CCC)c1=O [Compound 31, 8-[4-[((4-Chloro)phenylcarbamoylmethyl)oxy]phenyl]-1,3-di-(n-propyl)xanthine] | – | – | – | 309 | – | – | Ki [2, 6]: 0.00247 ± 0.00071 µM; Ki [3, 7]: 0.187 ± 0.038 µM; Ki (human A3 receptors (hA3) [4]; [8]): 1.87 µM; Ki [5, 9]: 0.0497 ± 0.0142 µM; Ki (rat A2A receptors (rA2A); [10]): 0.995 ± 0.55 µM; Ki (rat A1 receptors (rA1); [11]): 0.00635 ± 0.00147 µM |
| CCCn1c(=O)c2[nH]c(-c3ccc(OCC(=O)Nc4ccc(Br)cc4)cc3)nc2n(CCC)c1=O [Compound 32, 8-[4-[((4-Bromo)phenylcarbamoylmethyl)oxy]phenyl]-1,3-di-(n-propyl)xanthine] | – | – | – | > 310 | – | – | Ki [2, 6]: 0.00235 ± 1e-05 µM; Ki [3, 7]: 1.64 µM; Ki (human A3 receptors (hA3) [4]; [8]): 2.3 µM; Ki [5, 9]: 0.0735 ± 0.0233 µM; Ki (rat A2A receptors (rA2A); [10]): 0.221 ± 0.036 µM; Ki (rat A1 receptors (rA1); [11]): 0.00746 ± 0.00266 µM |
| CCCn1c(=O)c2[nH]c(-c3ccc(OCC(=O)Nc4ccc(I)cc4)cc3)nc2n(CCC)c1=O [Compound 33, 8-[4-[((4-Iodo)phenylcarbamoylmethyl)oxy]phenyl]-1,3-di-(n-propyl)xanthine] | – | – | – | > 310 | – | – | selectivity for human A2B versus human A1 receptors [2]: 140 fold; selectivity for human A2B versus human A2A receptors [2]: 2400 fold; selectivity for human A2B versus human A3 receptors [2]: 600 fold; Ki [2, 12]: 0.00213 µM; Ki [3, 7]: 5.14 µM; Ki (human A3 receptors (hA3) [4]; [8]): 1.27 µM; Ki [5, 9]: 0.293 ± 0.067 µM; Ki (rat A2A receptors (rA2A); [10]): 0.152 ± 0.047 µM; Ki (rat A1 receptors (rA1); [11]): 0.0157 ± 0.0042 µM |
| CCCn1c(=O)c2[nH]c(-c3ccc(/C=C/C(=O)NN4C(=O)C(C)=C(C)C4=O)cc3)nc2n(CCC)c1=O [Compound 34, 8-(4-(2-Carboxy-trans-vinyl)phenyl)-1,3-di-(n-propyl)xanthine N′,N′-[(1,2-Dimethyl)maleyl]hydrizide] | – | – | – | 302 to 303 | – | – | Ki ([2]; Table 3, read-out: hA2B Ki or IC50): 0.0167 ± 0.003 µM; Ki ([3]; read-out: hA2A Ki, values marked (h), Table 3): 0.223 ± 0.055 µM; Ki (human A3 receptors (hA3) [4]; Table 3, read-out: hA3 Ki or IC50): 0.031 ± 0.0031 µM; Ki ([5]; read-out: hA1 Ki, values marked (h), Table 3): 0.105 ± 0.005 µM; Ki (rat A2A receptors (rA2A); Table 3, read-out: rA2A Ki or IC50): 0.406 ± 0.105 µM; Ki (rat A1 receptors (rA1); Table 3, read-out: rA1 Ki or IC50): 0.00394 ± 0.0012 µM |
| CCCn1c(=O)c2[nH]c(-c3ccc(OCC(=O)NN4C(=O)C[C@H](NC(=O)C(F)(F)F)C4=O)cc3)nc2n(CCC)c1=O [Compound 44, 8-[4-[(Carboxymethyl)oxy]phenyl]-1,3-di-(n-propyl)xanthine N,N-[((2S)-Trifluoroacetamido)succinyl]hydrazide] | 1.56 | 0.139 ± 0.032 | 0.0743 ± 0.0066 | – | 2.5 | 0.0302 ± 0.0005 | – |
| CCCn1c(=O)c2[nH]c(-c3ccc(OCC(=O)NN4C(=O)CCC(c5ccccc5)C4=O)cc3)nc2n(CCC)c1=O (centres unmarked) [Compound 45, 8-[4-[(Carboxymethyl)oxy]phenyl]-1,3-di-(n-propyl)xanthine N,N-[(2-Phenyl)glutaryl]hydrazide] | 0.151 ± 0.099 | 0.0214 ± 0.0061 | 0.00387 ± 0.0012 | – | 1.0 | 0.00386 ± 0.0007 | – |
| CCCn1c(=O)c2[nH]c(-c3ccc(OCC(=O)NN4C(=O)C=C(C)C4=O)cc3)nc2n(CCC)c1=O [Compound 46, 8-[4-[(Carboxymethyl)oxy]phenyl]-1,3-di-(n-propyl)xanthine N,N-Citraconylhydrazide] | 0.551 ± 0.106 | 1.23 ± 0.27 | 0.203 ± 0.041 | – | 1.4 | 0.144 ± 0.011 | – |
| CCCn1c(=O)c2[nH]c(-c3ccc(OCC(=O)NN4C(=O)C(C)=C(C)C4=O)cc3)nc2n(CCC)c1=O [Compound 47, 8-[4-[(Carboxymethyl)oxy]phenyl]-1,3-di-(n-propyl)xanthine N,N-[(1,2-Dimethyl)maleyl]hydrazide] | – | 0.126 ± 0.041 | 0.0111 ± 0.0024 | > 310 | 0.57 | 0.0194 ± 0.0062 | selectivity for human A2B versus human A1 receptors [2]: 160 fold; selectivity for human A2B versus human A2A receptors [2]: 100 fold; selectivity for human A2B versus human A3 receptors [2]: 35 fold; hA1/hA2B ([2]; Table 1, Ki ratio): 110; hA2A/hA2B ([2]; Table 1, Ki ratio): 74; hA3/hA2B ([2]; Table 1, Ki ratio): 25; Ki ([2]; Table 1, [125I]ABOPX, HEK-293, read-out: hA2B Ki or IC50): 0.0266 ± 0.004 µM; Ki ([2]; Table 4, footnote a: [125I]-ABOPX, read-out: hA2B Ki (value marked ^a) (converted)): 0.0338 µM; Ki [2, 12]: 0.019 µM; Ki ([3]; read-out: hA2A Ki, values marked (h), Table 1, recombinant human A2A, HEK 293): 1.97 µM; Ki (human A3 receptors (hA3) [4]; Table 4, footnote a: [125I]ABA, read-out: hA3 Ki (value marked ^a)): 0.67 ± 0.154 µM; Ki ([5]; read-out: hA1 Ki, values marked (h)^a, Table 4, vs [3H]CPX, HEK-293): 3.03 µM |
| CCCn1c(=O)c2[nH]c(-c3ccc(OCC(=O)NN4C(=O)C=C(c5ccccc5)C4=O)cc3)nc2n(CCC)c1=O [Compound 49, 8-[4-[(Carboxymethyl)oxy]phenyl]-1,3-di-(n-propyl)xanthine N,N-[(2-Phenyl)maleyl]hydrazide] | 0.748 ± 0.234 | 1.54 ± 0.28 | 0.225 ± 0.076 | – | 3.4 | 0.0667 ± 0.037 | – |
| CCCn1c(=O)c2[nH]c(-c3ccc(OCC(=O)NN4C(=O)C(c5ccccc5)=C(c5ccccc5)C4=O)cc3)nc2n(CCC)c1=O [Compound 50, 8-[4-[(Carboxymethyl)oxy]phenyl]-1,3-di-(n-propyl)xanthine N,N-[(1,2-Diphenyl)maleyl]hydrazide] | 3.45 ± 1.47 | 2.1 ± 0.63 | 0.0958 ± 0.0251 | – | 3.4 | 0.0279 ± 0.0085 | – |
| CCCn1c(=O)c2[nH]c(-c3ccc(OCC(=O)NNC(=O)C4CC=CCC4C(=O)O)cc3)nc2n(CCC)c1=O (stereo not drawn) [Compound 51, 8-[4-[(Carboxymethyl)oxy]phenyl]-1,3-di-(n-propyl)xanthine N-[2-((1-Carboxy)-cis-4-cyclohexene)-carbonyl]hydrazide] | 1.06 ± 0.15 | 0.813 ± 0.299 | 0.134 ± 0.019 | – | 2.6 | 0.051 ± 0.007 | – |
| CCCn1c(=O)c2[nH]c(-c3ccc(OCC(=O)NNC(=O)C4=C(C(=O)O)CCC4)cc3)nc2n(CCC)c1=O [Compound 53, 8-[4-[(Carboxymethyl)oxy]phenyl]-1,3-di-(n-propyl)xanthine N-[2-((1-Carboxy)-1-cyclopentene)-carbonyl]hydrazide] | 1.18 ± 0.7 | 0.708 ± 0.169 | 0.0817 ± 0.0312 | – | 1.0 | 0.0785 ± 0.0205 | – |
